US8716292B2, “Riminophenazines with 2-(heteroaryl)amino substituents and their anti-microbial activity” (priority 2010, dated 2014)
Converted amounts (≈) assume the structure as drawn.

Each compound was assayed on Mycobacterium tuberculosis H37Rv strains (assay: In vitro assay for antimicrobial susceptibility (microplate Alamar blue MIC)). Settings: Mycobacterium tuberculosis, H37RV, 7H9, Alamar blue, inhibition ≧90%; read-out: MIC (μg/mL) against H37Rv.
Assay type: cell-based

SMILES	MIC [µg/mL]
CC(C)/N=c1\cc2n(-c3ccc(OC(F)(F)F)cc3)c3ccccc3nc-2cc1Nc1ncccn1 [TBI-951, 5-(4-Trifluoromethoxyphenyl)-3-(1-methylethyl)imino-2-(pyrimidin-2-yl)amino-3,5-dihydrophenazine]	0.019 (≈ 0.0387 µM)
CC(C)/N=c1\cc2n(-c3ccc(Cl)cc3)c3ccccc3nc-2cc1Nc1cnccn1 [TBI-1077]	< 0.0075

Same assay, conditions: Mycobacterium tuberculosis, H37RV, in vitro, Mycobacterium tuberculosis H37Rv strains; read-out: MIC (μg/mL) against H37Rv

SMILES	MIC [µg/mL]
CC(C)CN1CCC(/N=c2\cc3n(-c4ccccc4)c4ccccc4nc-3cc2Nc2cccnc2)CC1 [TBI-057, 5-phenyl-3-(N-isobutyl-4-piperidyl)imino-2-(3-pyridyl)amino-3,5-dihydrophenazine]	0.125 (≈ 0.249 µM)
Cc1ccc(Nc2cc3nc4ccc(F)cc4n(-c4ccc(Cl)c(Cl)c4)c-3c/c2=N\C2CCOCC2)cn1 [TBI-949, 7-Fluoro-5-(3,4-dichlorophenyl)-3-(4-tetrahydropyranyl)imino-2-(6-methyl-3-pyridyl)amino-3,5-dihydrophenazine]	0.816 (≈ 1.49 µM)
Cc1ccc(-n2c3c/c(=N\C4CC4)c(Nc4ccc(C)nc4)cc-3nc3ccccc32)cc1 [TBI-340, 5-(4-Methylphenyl)-3-cyclopropylimino-2-(6-methyl-3-pyridyl)amino-3,5-dihydrophenazine]	0.149 (≈ 0.345 µM)
COc1ncccc1Nc1cc2nc3ccccc3n(-c3ccc(Cl)c(Cl)c3)c-2c/c1=N\C1CCOCC1 [TBI-361, 5-(3,4-Dichlorophenyl)-3-(4-tetrahydropyranyl)imino-2-(2-methoxy-3-pyridyl)amino-3,5-dihydrophenazine]	0.08 (≈ 0.146 µM)
Clc1cccc(-n2c3c/c(=N\C4CC4)c(Nc4cccnc4)cc-3nc3ccccc32)c1 [TBI-812, 5-(3-Chlorophenyl)-3-cyclopropylimino-2-(3-pyridyl)amino-3,5-dihydrophenazine]	0.013 (≈ 0.0297 µM)
COc1ncccc1Nc1cc2nc3ccccc3n(-c3ccccc3)c-2c/c1=N\C1CCN(CC(C)C)CC1 [TBI-064, 5-Phenyl-3-(N-isobutyl-4-piperidyl)imino-2-(2-methoxy-3-pyridyl)amino-3,5-dihydrophenazine]	0.057 (≈ 0.107 µM)
Cc1ccc(-n2c3c/c(=N\C4CCN(CC(C)C)CC4)c(Nc4ccc(C)nc4)cc-3nc3ccccc32)cc1 [TBI-320, 5-(4-Methylphenyl)-3-(N-isobutyl-4-piperidyl)imino-2-(6-methyl-3-pyridyl)amino-3,5-dihydrophenazine]	0.11 (≈ 0.207 µM)
COc1ccc2nc3cc(Nc4ccc(C)nc4)/c(=N/C4CCCCC4)cc-3n(-c3ccc(Cl)cc3)c2c1 [TBI-869, 7-Methoxy-5-(4-chlorophenyl)-3-cyclohexylimino-2-(6-methyl-3-pyridyl)amino-3,5-dihydrophenazine]	0.056 (≈ 0.107 µM)
Cc1ccc(Nc2cc3nc4cc(F)ccc4n(-c4ccc(Cl)c(Cl)c4)c-3c/c2=N\C(C)C)cn1 [TBI-887, 8-Fluoro-5-(3,4-dichlorophenyl)-3-(1-methylethyl)imino-2-(6-methyl-3-pyridyl)amino-3,5-dihydrophenazine]	0.062 (≈ 0.122 µM)
Cc1ccc(Nc2cc3nc4ccccc4n(-c4ccc(Cl)c(Cl)c4)c-3c/c2=N\C2CC2)cn1 [TBI-944, 5-(3,4-Dichlorophenyl)-3-cyclopropylimino-2-(6-methyl-3-pyridyl)amino-3,5-dihydrophenazine]	0.06 (≈ 0.123 µM)
COc1ncccc1Nc1cc2nc3ccc(F)cc3n(-c3ccc(Cl)cc3)c-2c/c1=N\C1CCCCC1 [TBI-927, 7-Fluoro-5-(4-chlorophenyl)-3-cyclohexylimino-2-(2-methoxy-3-pyridyl)amino-3,5-dihydrophenazine]	0.04 (≈ 0.0758 µM)
FC(F)(F)Oc1cccc(-n2c3c/c(=N\C4CCC4)c(Nc4cccnc4)cc-3nc3ccccc32)c1 [TBI-1027, 5-(3-Trifluoromethoxyphenyl)-3-cyclobutylimino-2-(3-pyridyl)amino-3,5-dihydrophenazine]	0.383 (≈ 0.764 µM)
COC1CCC(/N=c2\cc3n(-c4ccc(Br)cc4)c4ccccc4nc-3cc2Nc2ccc(C)nc2)CC1 (centres unmarked) [TBI-503, 5-(4-Bromophenyl)-3-(4-methoxycyclohexyl)imino-2-(6-methyl-3-pyridyl)amino-3,5-dihydrophenazine]	0.097 (≈ 0.171 µM)
COCC(COC)/N=c1\cc2n(-c3ccc(OC(F)(F)F)cc3)c3ccccc3nc-2cc1Nc1cccnc1OC [TBI-372]	0.098 (≈ 0.169 µM)
Clc1cccc(-n2c3c/c(=N\C4CCC4)c(Nc4cccnc4)cc-3nc3ccccc32)c1 [TBI-814, 5-(3-Chlorophenyl)-3-cyclobutylimino-2-(3-pyridyl)amino-3,5-dihydrophenazine]	0.04 (≈ 0.0885 µM)
Cc1ncccc1Nc1cc2nc3ccccc3n(-c3ccc(F)cc3)c-2c/c1=N\C1CCCCC1 [TBI-1023, 5-(4-Fluorophenyl)-3-cyclohexylimino-2-(2-methyl-3-pyridyl)amino-3,5-dihydrophenazine]	0.0075 (≈ 0.0157 µM)
Cc1cncc(Nc2cc3nc4ccccc4n(-c4ccccc4)c-3c/c2=N\C(C)C)c1 [TBI-081, 5-Phenyl-3-(1-methylethyl)imino-2-(5-methyl-3-pyridyl)amino-3,5-dihydrophenazine]	0.117 (≈ 0.279 µM)
COc1ccc(Nc2cc3nc4ccccc4n(-c4ccccc4)c-3c/c2=N\C(C)C)cn1 [TBI-510, 5-Phenyl-3-(1-methylethyl)imino-2-(6-methoxy-3-pyridyl)amino-3,5-dihydrophenazine]	0.5 (≈ 1.15 µM)

SMILES	MIC [µg/mL]
COc1ccc(Nc2cc3nc4ccccc4n(-c4ccc(C)cc4)c-3c/c2=N\C2CCCCC2)cn1 [TBI-357, 5-(4-Methylphenyl)-3-cyclohexylimino-2-(6-methoxy-3-pyridyl)amino-3,5-dihydrophenazine]	0.228 (≈ 0.466 µM)
Cc1ccc(-n2c3c/c(=N\C4CCC4)c(Nc4cncc(C)c4)cc-3nc3ccccc32)cc1 [TBI-348, 5-(4-Methylphenyl)-3-cyclobutylimino-2-(5-methyl-3-pyridyl)amino-3,5-dihydrophenazine]	0.118 (≈ 0.265 µM)
COc1ncccc1Nc1cc2nc3ccccc3n(-c3ccc(Cl)cc3)c-2c/c1=N\C1CCN(C)CC1 [TBI-440, 5-(4-Chlorophenyl)-3-(N-methyl-4-piperidyl)imino-2-(2-methoxy-3-pyridyl)amino-3,5-dihydrophenazine]	0.06 (≈ 0.114 µM)
COc1ncccc1Nc1cc2nc3ccccc3n(-c3cccc(OC(F)(F)F)c3)c-2c/c1=N\C1CCOCC1 [TBI-1041, 5-(3-Trifluoromethoxyphenyl)-3-(4-tetrahydropyranyl)imino-2-(2-methoxy-3-pyridyl)amino-3,5-dihydrophenazine]	0.115 (≈ 0.205 µM)
Cc1ccc(Nc2cc3nc4ccccc4n(-c4ccc(Cl)c(Cl)c4)c-3c/c2=N\C2CCC2)cn1 [TBI-948, 5-(3,4-Dichlorophenyl)-3-cyclobutylimino-2-(6-methyl-3-pyridyl)amino-3,5-dihydrophenazine]	0.125 (≈ 0.25 µM)
COc1ncccc1Nc1cc2nc3ccccc3n(-c3ccc(Cl)cc3)c-2c/c1=N\C1CCN(CC(C)C)CC1 [TBI-442, 5-(4-Chlorophenyl)-3-(N-isobutyl-4-piperidyl)imino-2-(2-methoxy-3-pyridyl)amino-3,5-dihydrophenazine]	0.016 (≈ 0.0282 µM)
Cc1ncccc1Nc1cc2nc3ccccc3n(-c3ccc(C(F)(F)F)cc3)c-2c/c1=N\C(C)C [TBI-705, 5-(4-Trifluoromethylphenyl)-3-(1-methylethyl)imino-2-(2-methyl-3-pyridyl)amino-3,5-dihydrophenazine]	0.014 (≈ 0.0287 µM)
CC(=O)Nc1ccc(-n2c3c/c(=N\C(C)C)c(Nc4ccc(C)nc4)cc-3nc3ccccc32)cc1 [TBI-1228, 5-(4-Acetamidophenyl)-3-(1-methylethyl)imino-2-(6-methyl-3-pyridyl)amino-3,5-dihydrophenazine]	2.4 (≈ 5.03 µM)
COc1ncccc1Nc1cc2nc3ccccc3n(-c3ccccc3)c-2c/c1=N\CCN1CCOCC1 [TBI-065, 5-Phenyl-3-(2-morpholinoethyl)imino-2-(2-methoxy-3-pyridyl)amino-3,5-dihydrophenazine]	0.08 (≈ 0.158 µM)
CSc1ccc(-n2c3c/c(=N\C(C)C)c(Nc4cccnc4)cc-3nc3ccccc32)cc1 [TBI-456, 5-(4-Methylthiophenyl)-3-(1-methylethyl)imino-2-(3-pyridyl)amino-3,5-dihydrophenazine]	0.05 (≈ 0.111 µM)
Cc1ccc(Nc2cc3nc4ccccc4n(-c4ccccc4)c-3c/c2=N\C2CCOCC2)cn1 [TBI-070, 5-Phenyl-3-(4-tetrahydropyranyl)imino-2-(6-methyl-3-pyridyl)amino-3,5-dihydrophenazine]	0.08 (≈ 0.173 µM)
COc1ccc2nc3cc(Nc4cccnc4OC)/c(=N/C4CC4)cc-3n(-c3ccc(Cl)cc3)c2c1 [TBI-894, 7-Methoxy-5-(4-chlorophenyl)-3-cyclopropylimino-2-(2-methoxy-3-pyridyl)amino-3,5-dihydrophenazine]	0.06 (≈ 0.12 µM)
COc1ncccc1Nc1cc2nc3ccccc3n(-c3ccc(OC(F)(F)F)cc3)c-2c/c1=N\C(C)C [TBI-164, 5-(4-Trifluoromethoxyphenyl)-3-(1-methylethyl)imino-2-(2-methoxy-3-pyridyl)amino-3,5-dihydrophenazine]	0.028 (≈ 0.0539 µM)
COc1ncccc1Nc1cc2nc3ccccc3n(-c3ccc(F)cc3)c-2c/c1=N\C1CCC1 [TBI-1016, 5-(4-Fluorophenyl)-3-cyclobutylimino-2-(2-methoxy-3-pyridyl)amino-3,5-dihydrophenazine]	0.037 (≈ 0.0795 µM)
FC(F)(F)Oc1cccc(-n2c3c/c(=N\C4CC4)c(Nc4cccnc4)cc-3nc3ccccc32)c1 [TBI-1021, 5-(3-Trifluoromethoxyphenyl)-3-cyclopropylimino-2-(3-pyridyl)amino-3,5-dihydrophenazine]	0.054 (≈ 0.111 µM)
Cc1ccc(Nc2cc3nc4ccccc4n(-c4ccc(F)cc4)c-3c/c2=N\C2CC2)cn1 [TBI-908, 5-(4-Fluorophenyl)-3-cyclopropylimino-2-(6-methyl-3-pyridyl)amino-3,5-dihydrophenazine]	0.03 (≈ 0.0689 µM)
Cc1ccc(Nc2cc3nc4ccccc4n(-c4ccc(F)cc4)c-3c/c2=N\C(C)C)cn1 [TBI-692, 5-(4-Fluorophenyl)-3-(1-methylethyl)imino-2-(6-methyl-3-pyridyl)amino-3,5-dihydrophenazine]	0.06 (≈ 0.137 µM)
COc1ncccc1Nc1cc2nc3cc(C#N)ccc3n(-c3ccc(F)cc3)c-2c/c1=N\C1CCC(OC)CC1 (centres unmarked) [TBI-1065, 8-Cyano-5-(4-fluorophenyl)-3-(4-methyoxycyclohexyl)imino-2-(2-methoxy-3-pyridyl)amino-3,5-dihydrophenazine]	> 16
